Reference: patent US6852735B1, “Siastatin B derivatives having a glycosidase inhibitory activity and processes for producing the same” (Zaidan Hojin Biseibutsu Kagaku Kenkyu Kai, priority 1998, dated 2005)

Target: T1, β-D-galactosidase (from Aspergillus niger) (Aspergillus niger, UniProt P29853)
T1 construct: originated from Aspergillus niger; purchased Sigma Company; host or cells: Aspergillus niger
T1 sequence (P29853 20-1006): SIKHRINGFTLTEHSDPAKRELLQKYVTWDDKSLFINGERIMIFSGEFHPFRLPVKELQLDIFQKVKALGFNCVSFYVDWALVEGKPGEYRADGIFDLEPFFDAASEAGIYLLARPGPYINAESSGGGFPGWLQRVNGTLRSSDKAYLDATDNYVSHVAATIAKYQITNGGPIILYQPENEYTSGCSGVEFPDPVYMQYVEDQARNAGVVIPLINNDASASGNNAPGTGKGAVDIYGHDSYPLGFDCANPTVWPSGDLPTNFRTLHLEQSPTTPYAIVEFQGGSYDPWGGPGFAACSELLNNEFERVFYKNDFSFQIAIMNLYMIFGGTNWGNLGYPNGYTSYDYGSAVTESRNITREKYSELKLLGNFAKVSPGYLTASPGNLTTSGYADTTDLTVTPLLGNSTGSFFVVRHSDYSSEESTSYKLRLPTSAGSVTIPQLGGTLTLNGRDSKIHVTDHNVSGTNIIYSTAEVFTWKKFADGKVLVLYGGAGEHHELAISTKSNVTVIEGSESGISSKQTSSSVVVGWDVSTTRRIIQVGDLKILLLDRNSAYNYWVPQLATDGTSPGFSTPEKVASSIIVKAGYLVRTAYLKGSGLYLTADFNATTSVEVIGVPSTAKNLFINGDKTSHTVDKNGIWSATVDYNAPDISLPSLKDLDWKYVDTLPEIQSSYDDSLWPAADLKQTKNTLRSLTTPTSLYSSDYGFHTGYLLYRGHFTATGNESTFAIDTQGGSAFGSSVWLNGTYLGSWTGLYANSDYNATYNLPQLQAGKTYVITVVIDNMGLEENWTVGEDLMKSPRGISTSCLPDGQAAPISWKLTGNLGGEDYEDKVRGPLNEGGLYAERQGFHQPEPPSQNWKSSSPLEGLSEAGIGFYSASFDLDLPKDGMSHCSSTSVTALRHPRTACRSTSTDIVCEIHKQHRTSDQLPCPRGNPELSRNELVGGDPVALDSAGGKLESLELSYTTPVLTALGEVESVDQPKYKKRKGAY
Assay: β-galactosidase inhibition (Test Example 3)
Assay type: biochemical
Settings: for inhibition of β-D-galactosidase, in words: summary of Table 1
Procedure: Thus, 0.5 mL of 0.025M citrate-phosphate buffer (pH 4.0), 0.1 mL of the same buffer containing 10 mM p-nitro-phenyl-N-acetyl-α-D-galactosaminide dissolved therein, and 0.1 mL of either water or an aqueous solution containing as the test compound any one of the compounds of the formulae (I), (V) and (X) according to this invention were mixed with each other and pre-incubated in a 96-wells titer plate at 37° C. for 10 minutes. After the completion of the pre-incubation, to the pre-incubated mixture was added 0.01 mL of 0.025 M citrate-phosphate buffer containing α-N-acetyl-galactosaminidase originated from chicken liver (a product of Sigma Company) which was dissolved in said buffer as a glycosidase to be tested. Thereafter, the enzymatic reaction was conducted at 37° C. for 30 minutes.
After the enzymatic reaction, to the reaction solution was added 1.0 mL of 0.3M glycine—sodium hydroxide buffer (pH 10.5), in order to terminate the enzymatic reaction. Thereafter, the absorbance [designated as value (a)] of light at 405 nm of the resulting reaction solution was measured. Concurrently, measurement was made of the absorbance [designated as value (b)] at 405 nm of the reaction solution as obtained in the control test where the enzymatic reaction was conducted without addition of the test compound. Further, measurements were made of the absorbance [designated as values (a′)] and the absorbance [[designated as values (b′)] at 405 nm of the solutions as obtained in the blank test and the control test, respectively, where the enzymatic reaction was not conducted in the assay test. The rate of inhibition to […] was calculated by the equation: [1-(a-a′)/(b-b′)]×100.
The test results obtained are summarized as IC50 value in Table 1 below.
This Test Example is a test example for determining the α-galactosidase or β-galactosidase-inhibitory activity of the compound of the formula (I), (V) or (X) according to this invention.
The evaluation of the α-galactosidase or β-galactosidase-inhibitory activity was conducted according to a modification of the method described in the “Journal of Biological Chemistry”, 240, p.2468 (1965).
Namely, the test was conducted in the same manner as the test for the enzyme-inhibitory activity described in Test Example 1, but with using α-galactosidase or β-galactosidase (products of by Sigma Company) originated from Aspergillus niger, as the glycosidase enzyme, and with using p-nitrophenyl-α-D-galactoside and p-nitrophenyl-β-D-galactoside as the substrate. Furthermore, absorbances of light at 405 nm were measured in the same manner as in Test Example 1. IC50 values of the test compound capable of giving the 50% inhibition to the enzymes were calculated.

Compound | IC50 | inhibition of β-D-galactosidase, in words
O=C(N[C@H]1NC[C@H](CO)[C@H](O)[C@@H]1O)C(F)(F)F [Formula (I), 6-deacetamido-3-decarboxy-3-hydroxymethyl-6-trifluoroacetamido-siastain B] | 0.194 µM | inhibit strongly
CC(=O)NC1NCC(CO)C(O)C1O (stereo not drawn) [Formula (V), 3-decarboxy-4-epi-3-hydroxymethyl-siastain B] | > 490 µM | –
O=C(N[C@H]1NC[C@H](CO)[C@@H](O)[C@@H]1O)C(F)(F)F [Formula (X), 6-deacetamido-3-decarboxy-4-epi-3-hydroxymethyl-6-trifluoroacetamido-siastain B] | 232 µM | inhibit strongly
